Ends that are not written are not given here.

Consider 7 substances from US12371459B2, “Antimicrobial peptide derived from Pseudin-2 peptide and uses thereof” (INDUSTRY-ACADEMIC COOPERATION FOUNDATION, CHOSUN UNIVERSITY, priority 2019, dated 2025).

The test system of series [1] is erythrocytes of a mouse (Balb/c). The series is described as follows: Erythrocyte hemolytic activity. The note with it: 1 hour at 37° C. On the procedure:
To compare the cytotoxicity among the peptides that are produced by the method of Example 1, erythrocyte hemolytic activity of the synthesized peptide was measured.
After that, the amount of hemoglobin contained in a supernatant collected by centrifuge at 1,000×g was determined by measuring the absorbance at a wavelength of 414 nm. As a control to be used as a reference for cell disruption level, the supernatant collected by a treatment with 1% Triton X-100 (Sigma, USA) and a reaction for 1 hour at 37° C. was used to measure the absorbance. By setting the resulting absorbance value at 100% of the erythrocyte hemolytic activity, hemolysis of each peptide was calculated using the following equation 1. Erythrocyte disrupting ability (%)=(Absorbance A−Absorbance B)/(Absorbance C−Absorbance B)×100 Equation 1 (in the above equation, Absorbance A indicates the absorbance of a reaction solution treated with each peptide, in which the absorbance is measured at a wavelength of 414 nm; Absorbance B indicates the absorbance of a reaction solution treated with PBS, in which the absorbance is measured at a wavelength of 414 nm; and Absorbance C indicates the absorbance of a reaction solution treated with 1% Triton X-100, in which the absorbance is measured at a wavelength of 414 nm).

Series [2] in a line: Cytotoxicity in normal cell line (MTT). The note with it: human, HaCaT keratinocyte cells. On the procedure: To determine the cytotoxicity of the peptides produced by the method of Example 1 in normal cell line, cytotoxicity was measured by using human keratinocyte cell line (HaCaT cell line, Dr. N E. Fusenig, Heidelberg, Germany).
Specifically, HaCaT cells, which have been cultured in DMEM medium containing 10% FBS (fetal bovine serum), were aliquoted in a microtiter plate to have 2×10^5 cells per well. […] Twenty-four hours later, a reaction solution containing 0.5 mg/ml MTT (thiazolyl blue tetrazolium bromide) dissolved in phosphate buffered saline (PBS) was added in an amount of 100 μl to each well and the reaction was allowed to occur for 4 hours. After that, the supernatant was discarded, and, by dissolving MTT crystals that are formed by adding 200 μl DMSO (dimethyl sulfoxide), the absorbance at 560 nm was measured to determine the cell survival ability.

Series [3] deals with Bacillus subtilis KCTC 1998. The settings on record: KCTC 1998, 18 h. The source says: (§1) To compare the antimicrobial activity among the peptides produced by the method of Example 1, the inventors of the present invention measured the minimal growth inhibitory concentration (MIC), which is minimum concentration of the peptide not allowing any […] of bacterial cells.
(§2) Specifically, the bacterial strains described in the following Table 2 were purchased and cultured to a mid-log phase in a medium that is appropriate for each strain. […] After the addition to a plate, the cells were cultured for 18 hours at 37° C. […] As a control, Pseudin-2 as a mother peptide was used.

In series [4] the test system is Candida albicans KCTC 7270. The settings on record: KCTC 7270, 18 h.
From the text: as §1, §2

In series [5] the test system is Escherichia coli ATCC 25922. The note with it: ATCC 25922, 18 h.
From the text: as §1, §2

Series [6] has as its system Escherichia coli CCARM 1229 (tolerance to antibiotics).
From the text: as §1, §2

Series [7] deals with Escherichia coli CCARM 1238 (tolerance to antibiotics).
From the text: as §1, §2

The subject of series [8] is Listeria monocytogenes KCTC 3710. The settings on record: KCTC 3710, 18 h.
From the text: as §1, §2

The test system of series [9] is Pseudomonas aeruginosa ATCC 27853. The settings on record: ATCC 27853, 18 h.
From the text: as §1, §2

Series [10] relates to Pseudomonas aeruginosa isolated strain 4007 (tolerance to antibiotics).
From the text: as §1, §2

The test system of series [11] is Pseudomonas aeruginosa isolated strain 4891 (tolerance to antibiotics).
From the text: as §1, §2

Series [12] relates to Salmonella typhimurium KCTC 1926. The note with it: KCTC 1926, 18 h.
From the text: as §1, §2

The subject of series [13] is Staphylococcus aureus ATCC 25923. The settings on record: ATCC 25923, 18 h.
From the text: as §1, §2

The subject of series [14] is Staphylococcus aureus CCARM 3090 (tolerance to antibiotics).
From the text: as §1, §2

In series [15] the test system is Staphylococcus aureus CCARM 3518 (tolerance to antibiotics).
From the text: as §1, §2

Series [16] concerns Trichosporon beigelii KCTC 7707. The settings on record: KCTC 7707, 18 h.
From the text: as §1, §2

Consider “WLNALKKVFQGIHEAIKLINNHVQ-NH2 [Pse-Anal1]”, for which the Erythrocyte disrupting ability in series [1] (peptide concentration 3.13 μM) came out at 50.9%; in series [1] (peptide concentration 6.25 μM), 58.6%; in series [1] (peptide concentration 12.5 μM), 68.9%; in [1] (peptide concentration 25 μM), 82.0%; in [1] (peptide concentration 50 μM), 93.5%; in series [1] (peptide concentration 100 μM), 100%. In [2], this substance registered a viability at 24 h, 3.13 µM of 80.1%. The substance further registered a viability at 24 h, 6.25 µM in series [2] of 35.2%. Further, the viability at 24 h, 12.5 µM in series [2] was found to be 26.8%. Also, in series [2], the viability at 24 h, 25 µM worked out at 15.9%. This substance also yielded a viability at 24 h, 50 µM in series [2] of 13.6%. In series [2], this substance had a viability at 24 h, 100 µM of 1.8%.
Consider “ALNALKKVSQGIHEAIKLIANHVQ-NH2 [Pse-Anal7]”, for which the Minimal inhibitory concentration was determined as 16 µM in series [3]; 32 µM in series [4]; 8 µM in series [5]; 16 µM in series [6]; 16 µM in series [7]; 16 µM in series [8]. The Minimal inhibitory concentration amounted to 8 µM in series [9]; 32 µM in series [10]; 32 µM in series [11]; 8 µM in [12]; 16 µM in series [13]; 32 µM in series [14]. Moreover, the Minimal inhibitory concentration in series [15] and in series [16] was 32 µM in each case. The viability at 24 h, 3.13 µM in series [2] (Cell survival ability) worked out at 100%. This substance showed a viability at 24 h, 6.25 µM in [2] (Cell survival ability) of 100%. The substance also had a viability at 24 h, 12.5 µM in series [2] (Cell survival ability) of 100%. Besides, the viability at 24 h, 25 µM in series [2] (Cell survival ability) is 100%. Moreover, in series [2] (Cell survival ability), the viability at 24 h, 50 µM was determined as 100%. In addition, in [2] (Cell survival ability), the viability at 24 h, 100 µM is 100%.
Turning to “WLNALKKVFQGIHEAIKLIWNHVQ-NH2 [Pse-Anal2]”, the Minimal inhibitory concentration in series [3] is 4 µM; in series [4] it was 32 µM; in series [5], 2 µM; in [6], 2 µM; in [7], 2 µM; in series [8] it was 8 µM. Further, the Minimal inhibitory concentration in [9] was found to be 2 µM; in series [10], 2 µM; in [11], 4 µM; in [12] it was 2 µM; in series [13] it was 4 µM; in series [14] it was 4 µM. Also, the results for the Minimal inhibitory concentration in series [15] and in series [16] were 4 µM and 32 µM, respectively. Moreover, the viability at 24 h, 3.13 µM in [2] (Cell survival ability) stood at 81.3%. Further, the viability at 24 h, 6.25 µM in [2] (Cell survival ability) was 48.1%. Also, the viability at 24 h, 12.5 µM in series [2] (Cell survival ability) worked out at 32.2%. The viability at 24 h, 25 µM in [2] (Cell survival ability) came to 18.8%. In [2] (Cell survival ability), this substance showed a viability at 24 h, 50 µM of 15.7%. The substance also showed a viability at 24 h, 100 µM in series [2] (Cell survival ability) of 5.1%.
“GLNALKKVSQGIHEAIKLINNHVQ-NH2 [Pse-Anal5]”: the Erythrocyte disrupting ability in series [1] (peptide concentration 3.13 μM) was 0%. For the same substance, the Erythrocyte disrupting ability in series [1] (peptide concentration 6.25 μM) is on record as 0.7%. This substance had an Erythrocyte disrupting ability in series [1] (peptide concentration 12.5 μM) of 2.3%. In [1] (peptide concentration 25 μM), this substance registered an Erythrocyte disrupting ability of 5.9%. Further, in series [1] (peptide concentration 50 μM), the Erythrocyte disrupting ability is 11.7%. This substance registered an Erythrocyte disrupting ability in series [1] (peptide concentration 100 μM) of 20.1%. In addition, in [2], the viability at 24 h, 3.13 µM turned out to be 100%; the viability at 24 h, 6.25 µM is 100%; the viability at 24 h, 12.5 µM is 100%; the viability at 24 h, 25 µM is 100%. For the same substance, in series [2], the viability at 24 h, 50 µM was 96.3% and the viability at 24 h, 100 µM came to 83.5%.
As for “GLNALKKVFQGIHEAIKKINNHVQ-NH2 [Pse-18L-K]”, the Erythrocyte disrupting ability came out at 2.4% in series [1] (peptide concentration 3.13 μM); 3.4% in series [1] (peptide concentration 6.25 μM); 5.4% in series [1] (peptide concentration 12.5 μM); 12.5% in series [1] (peptide concentration 25 μM); 24.2% in [1] (peptide concentration 50 μM); 36.7% in series [1] (peptide concentration 100 μM). In series [2], this substance yielded a viability at 24 h, 3.13 µM of 100%. Besides, the viability at 24 h, 6.25 µM in series [2] turned out to be 100%. In series [2], this substance came in with a viability at 24 h, 12.5 µM of 100%. The viability at 24 h, 25 µM in series [2] was determined as 100%. For the same substance, the viability at 24 h, 50 µM in series [2] was determined as 100%. The substance further displayed a viability at 24 h, 100 µM in series [2] of 81.5%.
Consider “GLNALKKVSQGIHESIKLINNHVQ-NH2 [Pse-Anal6]”, for which the Minimal inhibitory concentration is 32 µM in series [3]; 64 µM in [4]; 16 µM in series [5]; 64 µM in [6]; 64 µM in [7]; 32 µM in series [8]. The Minimal inhibitory concentration in series [9] is 16 µM; in series [10], 64 µM; in series [11] it was 64 µM; in series [12], 16 µM; in series [13], 32 µM; in [14], 64 µM. Also, the Minimal inhibitory concentration in series [15] and in [16] was 64 µM each time. Besides, the viability at 24 h, 3.13 µM in series [2] (Cell survival ability) was found to be 100%. Also, the viability at 24 h, 6.25 µM in [2] (Cell survival ability) was determined as 100%. In [2] (Cell survival ability), this substance showed a viability at 24 h, 12.5 µM of 100%. The substance further came in with a viability at 24 h, 25 µM in series [2] (Cell survival ability) of 100%. Moreover, the viability at 24 h, 50 µM in series [2] (Cell survival ability) amounted to 100%. This substance displayed a viability at 24 h, 100 µM in series [2] (Cell survival ability) of 92.1%.
Consider “WLNALKKVFQGIHEAIKLIWNWVQ-NH2 [Pse-Anal3]”, for which the Minimal inhibitory concentration in series [3] amounted to 32 µM; in series [4], 32 µM; in [5], 16 µM; in [6], 32 µM; in series [7], 32 µM; in series [8] it was 32 µM. Moreover, the Minimal inhibitory concentration in series [9] came out at 16 µM; in [10], 64 µM; in series [11], 64 µM; in [12], 16 µM; in series [13], 32 µM; in series [14], 32 µM. Also, the Minimal inhibitory concentration in [15] and in series [16] was 32 µM each time. This substance also returned a viability at 24 h, 3.13 µM in series [2] (Cell survival ability) of 55.4%. In series [2] (Cell survival ability), this substance yielded a viability at 24 h, 6.25 µM of 45.8%. This substance also yielded a viability at 24 h, 12.5 µM in series [2] (Cell survival ability) of 25.6%. Also, the viability at 24 h, 25 µM in series [2] (Cell survival ability) was found to be 24.1%. For the same substance, in series [2] (Cell survival ability), the viability at 24 h, 50 µM came out at 13.6%. The viability at 24 h, 100 µM in [2] (Cell survival ability) amounted to 10.8%.
